Data published in PMC8850458, “The AUTOTAC chemical biology platform for targeted protein degradation via the autophagy-lysosome system” (Nature Communications, 2022).
Where “and” joins values, the source holds several entries; their conditions need not be identical. Identical values can stand only once.

How the values were obtained:
Ub^+ and p62^+ puncta = experiment: ICC of Ub (FK2) and p62 puncta in HeLa cells; assay type: cell-based; details: Fig. 4g; for FK2 (Ub) / p62 colocalization, cells counted per 50 cells (individual replicates): listed as PBA
Description: (§1) Fig. 4 Targeted autophagic delivery and degradation of misfolded protein cargoes using AUTOTACs with aggregate-binding warhead. a A model illustrating the mode of action of aggregate-targeting AUTOTAC. b Chemical structures of PBA-1105, PBA-1106, Anle138b-F105 and PBA-1105b. c In vitro p62 oligomerization assay in HEK293T cells incubated with the indicated compounds in (b). d WB in HEK293T cells treated with MG132 (1 μM, 24 h), HCQ (10 μM, 24 h), PBA-1105, YTK-1105, and PBA (1 μM, 24 h). e Identical to (d), but with Anle-F105. f ICC of HeLa cells treated with HCQ (10 μM, 24 h), MG132 (2 μM, 18 h) or both in the presence of PBA-1106, YOK-1106 or PBA (1 μM, 24 h). Scale bar, 10 μm. g Quantification of (f) (n = 3, 50 cells). h ICC of HeLa cells treated with Anle138b-F105 (1 μM, 24 h). Scale bar, 10 μm. i Quantification of (h) (n = 3, 50 cells). When indicated, n = 3 biologically independent experiments each counting 50 cells. Data are presented as mean values ± SD where relevant. P-values (from a two-sided unpaired t test): ***P < 7.66E−05. Source data are provided with this paper.
Cells were cultured on coverslips coated with poly-L-lysine (Sigma) to observe cellular localization of proteins. Using 4% paraformaldehyde in PBS (pH 7.4), the cells were fixed for 15 min at room temperature and washed three times for 5 min with PBS. After fixing, the cells were permeabilized with 0.5% Triton X-100 in PBS solution for 15 min and washed three times with PBS for 5 min. The cells were blocked containing 2% BSA in PBS solution for 1 h at room temperature. Subsequently, the cells were incubated with primary antibody diluted in 2% BSA/PBS solution overnight at 4 °C, followed by washing the cells three times for 10 min with PBS and incubated with Alexa Fluor-conjugated secondary antibody diluted in 2% BSA/PBS for 30 min at room temperature. Using a DAPI-containing mounting medium (Vector Laboratories), the coverslips were mounted on glass slides. Confocal images were taken by laser scanning confocal microscope 510 Meta (Zeiss) and analyzed by Zeiss LSM Image Browser (ver. 4.2.0.121). […] Quantification results are shown as mean ± S.D. or S.E.M. of three independent experiments

Ub-conjugated aggregates = experiment: WB autophagic flux of Ub-conjugated aggregates in HEK293T cells under proteasomal inhibition; assay type: cell-based
Description: as §1
Adherent cells were washed with phosphate-buffered saline (PBS) and cell pellets were lysed in SDS-based sample buffer (277.8 mM Tris-HCI, pH 6.8, 4.4% LDS, 44.4% (v/v) glycerol) containing beta-mercaptoethanol. […] Densitometry of developed bands was measured and analyzed with ImageJ (NIH, Bethesda).

[1] = target: T1, tau oligomers (htauP301L-BiFC bodies) and phosphorylated tau-BiFC (Homo sapiens, UniProt P10636, P618L); experiment: Immunohistochemistry of BiFC and AT8 fluorescence in brains of hTauP301L-BiFC mice; assay type: in vivo; details: Fig. 6k; for Sudan black B (BiFC fluorescence) CA1, per animal: control AVG 32.0843; for Sudan black B (BiFC fluorescence) Cortex, per animal: control AVG 98.7415
T1 construct: from tissue; host or cells: brain of 9-month-old hTauP301L-BiFC transgenic mice (C57BL/6)
Description: To evaluate the effect of PBA-1105 on tau aggregation in vivo, PBA-1105 was intraperitoneally administered to 9-month-old TauP301L-mice (n = 7 per group) with 20 or 50 mg/kg dosage. PBS containing 30% polyethylene glycol (PEG) was used as a vehicle. Twelve total administrations were performed for 4 weeks, three times a week.
Mice were anesthetized by intraperitoneal injection of 2% avertin (2,2,2-Tribromoethanol). Mice were then perfused with 0.9% saline. Brains were rapidly extracted and fixed with PBS containing 4% paraformaldehyde for 48 hr. For, cryprotection, the brains were infiltrated with PBS containing 30% sucrose at 4 °C until they sunk. For cryosectioning, the brains were embedded with O.C.T (Leica, Germany) and serially cut in the coronal plane into 30-μm thick sections on a cryostat microtome (Leica). Tissue slices were transferred to PBS containing 0.05% sodium azide as a preservative and stored at 4 °C.
To reduce autofluorescence of brain tissues, Sudan Black B stain was performed. Brain tissue slices were mounted onto glass slides and were stained with Sudan Black B solution (70 % ethanol containing 0.05% Sudan Black B) for 10 min. Then, to eliminate the excessive stain, the slides were dipped in PBS containing 0.1% Triton X-100 three times and washed with distilled water after. For nuclei counter-stain, brain tissues were stained with 0.5 μg/mL Hoechst in distilled water for 30 min. BiFC fluorescence (λex = 460−490 nm and λem = 500−550 nm) of brain slices were imaged using ZEISS® Axio Scan.Z1 (Zeiss, Germany). Fluorescence and total area of each puncta were measured using ImageJ (NIH, Bethesda).

ACHN cells = experiment: Wound healing assay in ACHN cells; assay type: cell-based; details: wound healing, compared with p62-binding moiety or TBL
Description: To analyze cell migration in two dimensions, U-87 MG or ACHN cells were plated to a monolayer. Cells were scratched with a sterile 10 μl pipette tip and the debris was removed using medium. Cells were treated with compounds and incubated for different time to monitor cell behavior. Photographs were obtained using a microscope at different time point.

T1 sequence (P10636 1-441 isoform P10636-8 P301L): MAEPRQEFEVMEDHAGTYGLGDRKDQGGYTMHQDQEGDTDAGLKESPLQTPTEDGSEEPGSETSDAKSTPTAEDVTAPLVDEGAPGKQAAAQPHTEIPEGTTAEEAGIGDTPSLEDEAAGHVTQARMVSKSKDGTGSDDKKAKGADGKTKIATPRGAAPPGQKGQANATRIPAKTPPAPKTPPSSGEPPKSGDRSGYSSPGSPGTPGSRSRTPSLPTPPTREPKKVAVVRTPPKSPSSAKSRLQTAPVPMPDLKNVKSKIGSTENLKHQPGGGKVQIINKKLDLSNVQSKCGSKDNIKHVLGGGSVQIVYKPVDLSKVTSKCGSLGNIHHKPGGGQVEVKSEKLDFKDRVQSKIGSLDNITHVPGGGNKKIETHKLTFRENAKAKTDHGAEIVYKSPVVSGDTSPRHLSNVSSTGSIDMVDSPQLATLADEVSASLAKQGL

O=C(O)CCCc1ccccc1 [4-PBA, 4-phenylbutyric acid]
FK2 (Ub) / p62 colocalization, AVG of cells per 50 cells (Ub^+ and p62^+ puncta; no co-treatment (con)): 6.333 | FK2 (Ub) / p62 colocalization, percentage AVG (Ub^+ and p62^+ puncta; no co-treatment (con)): 12.6667 percentage | FK2 (Ub) / p62 colocalization, cells counted per 50 cells (individual replicates) (Ub^+ and p62^+ puncta; no co-treatment (con), count out of 50 cells): 7 and 9 and 3 | FK2 (Ub) / p62 colocalization, AVG of cells per 50 cells (Ub^+ and p62^+ puncta; with HCQ): 19 | FK2 (Ub) / p62 colocalization, percentage AVG (Ub^+ and p62^+ puncta; with HCQ): 38 percentage | FK2 (Ub) / p62 colocalization, cells counted per 50 cells (individual replicates) (Ub^+ and p62^+ puncta; with HCQ, count out of 50 cells): 25 and 15 and 17 | FK2 (Ub) / p62 colocalization, AVG of cells per 50 cells (Ub^+ and p62^+ puncta; with MG132): 24 | FK2 (Ub) / p62 colocalization, percentage AVG (Ub^+ and p62^+ puncta; with MG132): 48 percentage | FK2 (Ub) / p62 colocalization, AVG of cells per 50 cells (Ub^+ and p62^+ puncta; with MG132+HCQ): 35.3333 | FK2 (Ub) / p62 colocalization, percentage AVG (Ub^+ and p62^+ puncta; with MG132+HCQ): 70.6667 percentage | FK2 (Ub) / p62 colocalization, cells counted per 50 cells (individual replicates) (Ub^+ and p62^+ puncta; with MG132+HCQ, count out of 50 cells): 32 and 39 and 35 | FK2 (Ub) / p62 colocalization, cells counted per 50 cells (individual replicates) (Ub^+ and p62^+ puncta; with MG132, count out of 50 cells): 13 and 33 and 26

O=C(CCCc1ccccc1)NCCOCCOCCOCCNCc1ccc(OCc2ccccc2)c(OCc2ccccc2)c1 [PBA-1105]
autophagic flux index of Ub-conjugated aggregates (Ub-conjugated aggregates; 1 μM 24 h, MG132 1 μM, HCQ 10 μM, control index 1): 2.2 | duration of sustained autophagic flux of Ub-conjugated aggregates (Ub-conjugated aggregates; 1 μM, MG132): at least 48 h | Sudan black B AVG % CA1 ([1]; 20 mg/kg, control 100): 74.803% | Sudan black B AVG % Cortex ([1]; 20 mg/kg, control 100): 62.7215% | Sudan black B (BiFC fluorescence) CA1, per animal ([1]; 20 mg/kg): 19.17 and 25.62 and 30.19 and 23.53 and 13.28 and 12.8 and 43.41 | Sudan black B (BiFC fluorescence) Cortex, per animal ([1]; 20 mg/kg): 48.97 and 40.445 and 49.503 and 29.786 and 68.378 and 118.96 and 77.483 | Sudan black B AVG % Cortex ([1]; 50 mg/kg, control 100): 38.7498% | Sudan black B (BiFC fluorescence) CA1, per animal ([1]; 50 mg/kg): 28.22 and 22.5 and 36.39 and 26.84 and 28.79 and 49.66 and 49.74 | Sudan black B (BiFC fluorescence) Cortex, per animal ([1]; 50 mg/kg): 22.584 and 15.381 and 25.562 and 21.978 and 66.624 and 61.234 and 54.472

O[C@H](CNCCOCCOCCOc1ccc(-c2c(-c3ccccc3)nn3c(C(F)(F)F)cc(C(F)(F)F)nc23)cc1)COc1ccc(OCc2ccccc2)c(OCCCc2ccccc2)c1 [PHTPP-1304]
inhibition of cell migration (ACHN cells): more efficiently inhibited cell migration
